The data set is described as follows: recombinant barcode read abundance after kanamycin selection (control-corrected) (log10(CPM+1)); higher = more efficient recombination; sequences stand for … in AGTGCAGAGAAAATCGGCCAGTTTTCTCTGCCTGCAGTCCGCATGCCGT…AGATTTATGCAGCGGACTGCCTTTCTCCCAAAGTGATAAACCGGACAGTATCATGGACCGGTTTTCCCGGTAATCCGTATTTGCAAGGTTGGTTTCACT; site = the 11-nt target. How it is done: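 Pooled E. coli target-specificity screen for the IS621 bridge recombinase. Each library plasmid pairs an 11-nt target (CT core) with a bridge RNA whose target-binding loop (9-nt LTG + 4-nt RTG) is reprogrammed; the rest of the 177-nt WT IS621 bridge RNA scaffold is fixed. The plasmid is co-electroporated with a WT donor plasmid; recombinase is induced with 0.1 mM IPTG and recombinants are selected on kanamycin. Recombinant barcodes are sequenced, converted to CPM, averaged over two biological replicates and corrected by the unselected control CPM. Molecule = full bridge RNA written as DNA: LTG = specificity nt 1-9, RTG = reverse complement of specificity nt 8-11, in the WT scaffold.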
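Also: IS621 recombinase and bridge RNA in Escherichia coli cells.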

Regarding “ACCCAGCCTTGGGTTCTAACCTGTTGCGT (site ACCCAGCCTAT)”, the “recombinant barcode read abundance (log10)” value worked out at 2.22.

Take “ACCCAGTCTTGGGTTCTAACCTGTTGCCA (site AACCAGTCTCG)”: the “recombinant barcode read abundance (log10)” value turned out to be 0.12.

Consider “ACCCAGTCTTGGGTTCTAACCTGTTGCCA (site ACCCAGTCTTG)”, for which the “recombinant barcode read abundance (log10)” value stood at 0.961.

As to “ACCCATTCTTGGGTTCTAACCTGTTGCGT (site ACCCATTCTAC)”, the “recombinant barcode read abundance (log10)” value amounted to 2.29.

“ACCCATTCTTGGGTTCTAACCTGTTGCGT (site TAGATAACTCA)”: the “recombinant barcode read abundance (log10)” value was 0.0317.

In the case of “ACCCCTCCTTGGGTTCTAACCTGTTGCCA (site ACCCCTCCTTG)”, the “recombinant barcode read abundance (log10)” value is 1.4.

For the sequence “ACCCCTCCTTGGGTTCTAACCTGTTGCCA (site ACGCCTCCTTG)”, the “recombinant barcode read abundance (log10)” value was 0.228.

For “ACCCTAACTTGGGTTCTAACCTGTTGCCG (site ACCCTAACTCG)”, the “recombinant barcode read abundance (log10)” value is 2.03.

As for “ACCCTAACTTGGGTTCTAACCTGTTGCCG (site ACCCTATCTAG)”, the “recombinant barcode read abundance (log10)” value stood at 0.129.

Consider “ACCCTGGCTTGGGTTCTAACCTGTTGCCT (site ACACTGGCTAG)”, for which the “recombinant barcode read abundance (log10)” value is 0.0738.

Turning to “ACCCTGGCTTGGGTTCTAACCTGTTGCCT (site ACCCTGGCTAG)”, the “recombinant barcode read abundance (log10)” value stood at 0.816.

As to “ACCCTGGCTTGGGTTCTAACCTGTTGCCT (site ACGCTGGCTAG)”, the “recombinant barcode read abundance (log10)” value stood at 0.326.

As to “ACCCTGGCTTGGGTTCTAACCTGTTGCCT (site ACTCTGGCTAG)”, the “recombinant barcode read abundance (log10)” value stood at 0.205.

Consider “ACCGACCCTTGGGTTCTAACCTGTTGCCG (site ACCGACCCTCG)”, for which the “recombinant barcode read abundance (log10)” value was determined as 1.47.

“ACCGACCCTTGGGTTCTAACCTGTTGCCG (site ACCGTCCCTCG)”: the “recombinant barcode read abundance (log10)” value was found to be 0.105.

“ACCGATTCTTGGGTTCTAACCTGTTGCAT (site ACCGATTCTAT)”: the “recombinant barcode read abundance (log10)” value worked out at 0.696.

Regarding “ACCGATTCTTGGGTTCTAACCTGTTGCAT (site GCCGATTCTAG)”, the “recombinant barcode read abundance (log10)” value amounted to 0.331.

Regarding “ACCGTCCCTTGGGTTCTAACCTGTTGCCG (site ACCGACCCTCG)”, the “recombinant barcode read abundance (log10)” value was 0.0364.

Turning to “ACCGTCCCTTGGGTTCTAACCTGTTGCCG (site ACCGTCCCTCG)”, the “recombinant barcode read abundance (log10)” value turned out to be 0.107.

For the sequence “ACCTCAACTTGGGTTCTAACCTGTTGCCT (site ACATCAACTAG)”, the “recombinant barcode read abundance (log10)” value is 0.0721.

With “ACCTCAACTTGGGTTCTAACCTGTTGCCT (site ACCTCAACTAG)”, the “recombinant barcode read abundance (log10)” value came out at 0.19.

With “ACCTCAACTTGGGTTCTAACCTGTTGCCT (site ACGTCAACTAG)”, the “recombinant barcode read abundance (log10)” value came out at 0.188.

Regarding “ACCTCAACTTGGGTTCTAACCTGTTGCCT (site ACTTCAACTAG)”, the “recombinant barcode read abundance (log10)” value was 0.215.

As for “ACCTCTTCTTGGGTTCTAACCTGTTGCTA (site ACCTCTTCTTA)”, the “recombinant barcode read abundance (log10)” value is 0.141.

Take “ACCTCTTCTTGGGTTCTAACCTGTTGCTA (site CGTCGACCTAT)”: the “recombinant barcode read abundance (log10)” value is 0.204.

Take “ACCTGACCTTGGGTTCTAACCTGTTGCCT (site ACCTGACCTAG)”: the “recombinant barcode read abundance (log10)” value stood at 1.31.

“ACCTGACCTTGGGTTCTAACCTGTTGCCT (site ACCTGCCCTAG)”: the “recombinant barcode read abundance (log10)” value turned out to be 0.0303.

Consider “ACCTGACCTTGGGTTCTAACCTGTTGCCT (site ACCTGGCCTAG)”, for which the “recombinant barcode read abundance (log10)” value was 0.1.

For the sequence “ACCTGACCTTGGGTTCTAACCTGTTGCCT (site ACCTGTCCTAG)”, the “recombinant barcode read abundance (log10)” value worked out at 0.0737.

For the sequence “ACCTGGCCTTGGGTTCTAACCTGTTGCCT (site ACCTGACCTAG)”, the “recombinant barcode read abundance (log10)” value worked out at 0.165.

Regarding “ACCTGGCCTTGGGTTCTAACCTGTTGCCT (site ACCTGCCCTAG)”, the “recombinant barcode read abundance (log10)” value amounted to 0.147.

Turning to “ACCTGGCCTTGGGTTCTAACCTGTTGCCT (site ACCTGGCCTAG)”, the “recombinant barcode read abundance (log10)” value was determined as 0.412.

Turning to “ACCTGGCCTTGGGTTCTAACCTGTTGCCT (site ACCTGTCCTAG)”, the “recombinant barcode read abundance (log10)” value turned out to be 0.247.

With “ACCTGGGCTTGGGTTCTAACCTGTTGCCT (site AACTGGGCTAG)”, the “recombinant barcode read abundance (log10)” value stood at 0.0365.

Consider “ACCTGGGCTTGGGTTCTAACCTGTTGCCT (site ACCTGGGCTAG)”, for which the “recombinant barcode read abundance (log10)” value came to 0.0605.

“ACCTGGGCTTGGGTTCTAACCTGTTGCCT (site AGCTGGGCTAG)”: the “recombinant barcode read abundance (log10)” value amounted to 0.

“ACCTGGGCTTGGGTTCTAACCTGTTGCCT (site ATCTGGGCTAG)”: the “recombinant barcode read abundance (log10)” value was determined as 0.12.

For “ACCTTACCTTGGGTTCTAACCTGTTGCGG (site ACCTTACCTAC)”, the “recombinant barcode read abundance (log10)” value worked out at 0.37.

As to “ACCTTACCTTGGGTTCTAACCTGTTGCGG (site ACCTTACCTCC)”, the “recombinant barcode read abundance (log10)” value came to 0.617.

Regarding “ACCTTACCTTGGGTTCTAACCTGTTGCGT (site ACCTTACCTAC)”, the “recombinant barcode read abundance (log10)” value stood at 1.97.

As to “ACCTTACCTTGGGTTCTAACCTGTTGCGT (site ACCTTACCTCC)”, the “recombinant barcode read abundance (log10)” value stood at 0.504.

With “ACGAAGGCTTGGGTTCTAACCTGTTGCCG (site ACGAAGGCTAG)”, the “recombinant barcode read abundance (log10)” value was determined as 0.182.

Take “ACGAAGGCTTGGGTTCTAACCTGTTGCCG (site ACGAAGGCTCG)”: the “recombinant barcode read abundance (log10)” value is 0.691.

As for “ACGACCGCTTGGGTTCTAACCTGTTGCCT (site ACGAACGCTAG)”, the “recombinant barcode read abundance (log10)” value stood at 0.571.

Regarding “ACGACCGCTTGGGTTCTAACCTGTTGCCT (site ACGACCGCTAG)”, the “recombinant barcode read abundance (log10)” value was determined as 0.804.

Turning to “ACGACCGCTTGGGTTCTAACCTGTTGCCT (site ACGAGCGCTAG)”, the “recombinant barcode read abundance (log10)” value came to 0.119.

For “ACGACCGCTTGGGTTCTAACCTGTTGCCT (site ACGATCGCTAG)”, the “recombinant barcode read abundance (log10)” value came out at 0.245.

In the case of “ACGACTACTTGGGTTCTAACCTGTTGCCT (site ACGACTACTAG)”, the “recombinant barcode read abundance (log10)” value stood at 0.128.

Consider “ACGACTACTTGGGTTCTAACCTGTTGCCT (site ACGACTCCTAG)”, for which the “recombinant barcode read abundance (log10)” value worked out at 0.00963.

With “ACGACTACTTGGGTTCTAACCTGTTGCCT (site ACGACTGCTAG)”, the “recombinant barcode read abundance (log10)” value was 0.113.

“ACGACTACTTGGGTTCTAACCTGTTGCCT (site ACGACTTCTAG)”: the “recombinant barcode read abundance (log10)” value was 0.048.

On to “ACGACTGCTTGGGTTCTAACCTGTTGCCT (site ACGACTACTAG)”, for which the “recombinant barcode read abundance (log10)” value stood at 0.166.

For “ACGACTGCTTGGGTTCTAACCTGTTGCCT (site ACGACTCCTAG)”, the “recombinant barcode read abundance (log10)” value was 0.163.

Turning to “ACGACTGCTTGGGTTCTAACCTGTTGCCT (site ACGACTGCTAG)”, the “recombinant barcode read abundance (log10)” value came out at 0.738.

On to “ACGACTGCTTGGGTTCTAACCTGTTGCCT (site ACGACTTCTAG)”, for which the “recombinant barcode read abundance (log10)” value was determined as 0.247.

In the case of “ACGAGAGCTTGGGTTCTAACCTGTTGCCT (site ACAAGAGCTAG)”, the “recombinant barcode read abundance (log10)” value was determined as 0.92.

As to “ACGAGAGCTTGGGTTCTAACCTGTTGCCT (site ACCAGAGCTAG)”, the “recombinant barcode read abundance (log10)” value worked out at 0.0692.

As to “ACGAGAGCTTGGGTTCTAACCTGTTGCCT (site ACGAGAGCTAG)”, the “recombinant barcode read abundance (log10)” value is 1.11.

With “ACGAGAGCTTGGGTTCTAACCTGTTGCCT (site ACTAGAGCTAG)”, the “recombinant barcode read abundance (log10)” value was determined as 0.135.

For the sequence “ACGAGCCCTTGGGTTCTAACCTGTTGCCA (site ACGAGCCCTTG)”, the “recombinant barcode read abundance (log10)” value turned out to be 0.666.

As to “ACGAGCCCTTGGGTTCTAACCTGTTGCCA (site ACGCACCCTTG)”, the “recombinant barcode read abundance (log10)” value came to 0.151.

“ACGAGGACTTGGGTTCTAACCTGTTGCCG (site ACGAAGACTCG)”: the “recombinant barcode read abundance (log10)” value is 0.232.

With “ACGAGGACTTGGGTTCTAACCTGTTGCCG (site ACGAGGACTCG)”, the “recombinant barcode read abundance (log10)” value was 1.09.

Regarding “ACGAGTACTTGGGTTCTAACCTGTTGCGG (site ACGAGTACTCA)”, the “recombinant barcode read abundance (log10)” value amounted to 0.392.

As to “ACGAGTACTTGGGTTCTAACCTGTTGCGG (site ACGAGTACTCC)”, the “recombinant barcode read abundance (log10)” value was found to be 1.82.

Take “ACGATTCCTTGGGTTCTAACCTGTTGCTT (site ACGAATCCTAA)”: the “recombinant barcode read abundance (log10)” value was 0.0108.

As for “ACGATTCCTTGGGTTCTAACCTGTTGCTT (site ACGACTCCTAA)”, the “recombinant barcode read abundance (log10)” value was 0.142.

As to “ACGATTCCTTGGGTTCTAACCTGTTGCTT (site ACGAGTCCTAA)”, the “recombinant barcode read abundance (log10)” value turned out to be 0.0586.

Regarding “ACGATTCCTTGGGTTCTAACCTGTTGCTT (site ACGATTCCTAA)”, the “recombinant barcode read abundance (log10)” value was 0.0242.

In the case of “ACGCAGTCTTGGGTTCTAACCTGTTGCCT (site ACGCAATCTAG)”, the “recombinant barcode read abundance (log10)” value was found to be 0.313.

On to “ACGCAGTCTTGGGTTCTAACCTGTTGCCT (site ACGCACTCTAG)”, for which the “recombinant barcode read abundance (log10)” value was 0.0573.

Consider “ACGCAGTCTTGGGTTCTAACCTGTTGCCT (site ACGCAGTCTAG)”, for which the “recombinant barcode read abundance (log10)” value is 0.798.

Turning to “ACGCAGTCTTGGGTTCTAACCTGTTGCCT (site ACGCATTCTAG)”, the “recombinant barcode read abundance (log10)” value was 0.129.

For the origin of these results see the supplement of paper PMC11208160.
